Source: PubChem BioAssay (NCI)
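Following 48 hours of exposure in 96-well plates, responses at five concentrations were used to interpolate endpoints linearly. TGI is the concentration that stops growth completely.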

Tests used:
Assay in all cases: NCI anticancer screen, dose series, 48 h
[1] = system: 786-0 renal
[2] = system: A498 renal
[3] = system: A549 NSCLC
[4] = system: ACHN renal
[5] = system: CAKI-1 renal
[6] = system: CCRF-CEM leukemia
[7] = system: COLO 205 colon
[8] = system: DLD-1 colon
[9] = system: DMS 114 small cell lung
[10] = system: DMS 273 small cell lung
[11] = system: EKVX NSCLC
[12] = system: HCC-2998 colon
[13] = system: HCT-116 colon
[14] = system: HCT-15 colon
[15] = system: HL-60(TB) leukemia
[16] = system: HOP-18 NSCLC
[17] = system: HOP-62 NSCLC
[18] = system: HOP-92 NSCLC
[19] = system: HT29 colon
[20] = system: IGROV1 ovarian
[21] = system: K-562 leukemia
[22] = system: KM12 colon
[23] = system: KM20L2 colon
[24] = system: LOX IMVI melanoma
[25] = system: LXFL 529 NSCLC
[26] = system: M14 melanoma
[27] = system: M19-MEL melanoma
[28] = system: MALME-3M melanoma
[29] = system: MOLT-4 leukemia
[30] = system: NCI-H226 lung
[31] = system: NCI-H23 lung
[32] = system: NCI-H460 lung
[33] = system: NCI-H522 lung
[34] = system: OVCAR-3 ovarian
[35] = system: OVCAR-4 ovarian
[36] = system: OVCAR-5 ovarian
[37] = system: OVCAR-8 ovarian
[38] = system: RPMI-8226 leukemia
[39] = system: RXF 393 renal
[40] = system: RXF-631 renal
[41] = system: SF-268 CNS
[42] = system: SF-295 CNS
[43] = system: SF-539 CNS
[44] = system: SK-MEL-2 melanoma
[45] = system: SK-MEL-28 melanoma
[46] = system: SK-MEL-5 melanoma
[47] = system: SK-OV-3 ovarian
[48] = system: SN12C renal
[49] = system: SNB-19 CNS
[50] = system: SNB-75 CNS
[51] = system: SNB-78 CNS
[52] = system: SR leukemia
[53] = system: SW-620 colon
[54] = system: TK-10 renal
[55] = system: U251 CNS
[56] = system: UACC-257 melanoma
[57] = system: UACC-62 melanoma
[58] = system: UO-31 renal
[59] = system: XF 498 CNS

Measured: TGI

CC1=C(c2cc(C(=O)Nc3cc(C)ccc3C)nc(N)n2)Sc2ccccc2N1
not listed: [59]
> 100 µM: all other assays above

S=C(Nc1ccccc1)Nc1ccccc1SC(/C=C/NNC1=NC(c2ccccc2)C(c2ccccc2)=NN1)c1ccccc1 (centres undefined)
84.2 µM: [18]
64.5 µM: [17]
44.6 µM: [39]
not listed: [16] | [25] | [30] | [31] | [50] | [52] | [56] | [58]
> 100 µM: all other assays above
